Laboratory results taken from patent US9902986B2, “Enterobactin conjugates and uses thereof” (Massachusetts Institute of Technology, priority 2013, dated 2018).

Tested on: E. coli ATCC 33475 (ent-)
Type: cell-based, Escherichia coli
Method: General microbiology methods are as described herein or according to processes known in the art. […] Bacterial growth was assayed by measuring OD600 using a BioTek Synergy HT plate reader. Each well condition was prepared in duplicate and three independent replicates of each assay were conducted on different days. The resulting mean OD600 are reported and the error bars are the standard deviation of the mean obtained from the three independent replicates.
Three non-pathogenic E. coli strains were employed that are defective in enterobactin synthesis, enterobactin transport, or ferric enterobactin utilization in growth recovery assays. E. coli ATCC 33475 (ent-) cannot biosynthesize enterobactin, but retains the capacity to import and metabolize the siderophore.^71 E. coli H1187 (fepA-) lacks the outer membrane enterobactin receptor. E. coli K-12 JW0576 (fes-) can accumulate ferric enterobactin, but cannot release the iron because it is deficient in the enterobactin esterase Fes. As a result of these defects in iron metabolism, all three strains grow poorly under conditions of iron limitation.^71 The iron chelator 2,2′-dipyridyl (dipyridyl, DP) was used to generate iron-deficient conditions and promote expression of siderophore transport machinery in the growth recovery assays.

| Compound | effect on E. coli growth in the absence of DP | other results |
| --- | --- | --- |
| CN[C@H](CC(C)C)C(=O)N[C@H]1C(=O)N[C@@H](CC(N)=O)C(=O)N[C@H]2C(=O)N[C@H]3C(=O)N[C@H](C(=O)N[C@H](C(=O)O)c4cc(O)cc(O)c4-c4cc3ccc4O)[C@H](O)c3ccc(c(Cl)c3)Oc3cc2cc(c3O[C@@H]2OC(CO)[C@@H](O)C(O)C2O[C@H]2CC(C)(N)[C@H](O)C(C)O2)Oc2ccc(cc2Cl)[C@H]1O (stereo partly shown) [vancomycin, reference compound] | – | activity against E. coli (over the concentration range employed): inactive against E. coli |
| O=C(NCCCCCC(=O)N1CCN(c2cc3c(cc2F)c(=O)c(C(=O)O)cn3C2CC2)CC1)c1cc(O)c(O)c(C(=O)N[C@H]2COC(=O)[C@@H](NC(=O)c3cccc(O)c3O)COC(=O)[C@@H](NC(=O)c3cccc(O)c3O)COC2=O)c1 [conjugate 40, 7-(4-(6-(3-(((3S,7S,11S)-7,11-Bis(2,3-dihydroxybenzamido)-2,6,10-trioxo-1,5,9-trioxacyclododecan-3-yl)carbamoyl)-4,5-dihydroxybenzamido)hexanoyl)piperazin-yl)-1-cyclopropyl-6-fluoro-4-oxo-1,4-dihydroquinoline-3-carboxylic acid] | concentration-dependent inhibition of E. coli growth | – |
| O=C(NCCOCCOCCOCCC(=O)N1CCN(c2cc3c(cc2F)c(=O)c(C(=O)O)cn3C2CC2)CC1)c1cc(O)c(O)c(C(=O)N[C@H]2COC(=O)[C@@H](NC(=O)c3cccc(O)c3O)COC(=O)[C@@H](NC(=O)c3cccc(O)c3O)COC2=O)c1 [conjugate 35, 7-(4-(1-(3-(((3S,7S,11S)-7,11-Bis(2,3-dihydroxybenzamido)-2,6,10-trioxo-1,5,9-trioxacyclododecan-3-yl)carbamoyl)-4,5-dihydroxyphenyl)-1-oxo-5,8,11-trioxa-2-azatetradecan-14-oyl)piperazin-1-yl)-1-cyclopropyl-6-fluoro-4-oxo-1,4-dihydroquinoline-3-carboxylic acid] | concentration-dependent inhibition of E. coli growth | – |
| O=C(NCCOCCOCCOCCNC(=O)c1cc2cc3c4c(c2oc1=O)CCCN4CCC3)c1cc(O)c(O)c(C(=O)N[C@H]2COC(=O)[C@@H](NC(=O)c3cccc(O)c3O)COC(=O)[C@@H](NC(=O)c3cccc(O)c3O)COC2=O)c1 [conjugate 34, N^3-((3S,7S,11S)-7,11-Bis(2,3-dihydroxybenzamido)-2,6,10-trioxo-1,5,9-trioxacyclododecan-3-yl)-4,5-dihydroxy-N^1-(1-oxo-1-(11-oxo-2,3,5,6,7,1-hexahydro-1H-pyrano[2,3-f]pyrido[3,2,1-ij]quinolin-10-yl)-5,8,11-trioxa-2-azatridecan-13-yl)isophthalamide] | – | toxicity to E. coli (under iron limitation): no toxicity |
